Converted amounts (≈) assume the structure as drawn.
Legend:
[1] = Thermodynamic solubility of the compound; type: physicochemical; conditions: read-out: Therm_solubility
[2] = Volume of distribution at steady state in monkey; type: ADME, organism-based, Macaca mulatta; conditions: rhesus monkey, in vivo; read-out: Vdss
[3] = Oral bioavailability in mouse; type: ADME, organism-based; conditions: in vivo
[4] = Oral bioavailability in rat; type: ADME, organism-based; conditions: in vivo
[5] = Oral bioavailability in dog; type: ADME, organism-based, Canis lupus familiaris; conditions: in vivo
[6] = Oral bioavailability in monkey; type: ADME, organism-based, Macaca mulatta; conditions: rhesus monkey, in vivo
[7] = Solubility of the compound in PBS at pH 7.4; type: physicochemical
[8] = Solubility of the compound in FaSSIF at pH 6.4; type: physicochemical
[9] = Solubility of the compound in FeSSIF at pH 5.2; type: physicochemical
[10] = Volume of distribution at steady state in mouse; type: ADME, organism-based; conditions: in vivo, read-out: Vdss
[11] = Volume of distribution at steady state in rat; type: ADME, organism-based; conditions: in vivo, read-out: Vdss
[12] = Volume of distribution at steady state in dog; type: ADME, organism-based, Canis lupus familiaris; conditions: in vivo, read-out: Vdss

Cn1cc(-c2ccc(Cc3n[nH]c4ccc(C(=O)N5CCNCC5)cc34)cc2)cn1
solubility kinetic (physchem): 186 µM (≈ 74.5 µg/mL)

Cn1cc(-c2ccc(Cc3n[nH]c4ccc(C(=O)N5CCCCC5)cc34)cc2)cn1
solubility kinetic (physchem): 106 µM (≈ 42.3 µg/mL)

COC1CN(C(=O)c2ccc3[nH]nc(Cc4ccc(-c5cnn(C)c5)cc4)c3c2)C1
solubility kinetic (physchem): 170 µM (≈ 68.2 µg/mL)

CNC(=O)c1ccc2[nH]nc(Cc3ccc(-c4cnn(CC(C)(C)O)c4)cc3)c2c1
solubility thermodynamic [1]: 26 µg/mL (≈ 64.4 µM)
solubility kinetic (physchem): 182 µM (≈ 73.4 µg/mL)

Cn1cc(-c2ccc(Cc3n[nH]c4ccc(C(=O)N5CC[C@H](O)C5)cc34)cc2)cn1
solubility kinetic (physchem): 200 µM (≈ 80.3 µg/mL)

Cn1cc(-c2ccc(Cc3n[nH]c4ccc(NS(C)(=O)=O)cc34)cc2)cn1
solubility kinetic (physchem): 153 µM (≈ 58.4 µg/mL)

Cn1cc(-c2ccc(Cc3n[nH]c4ccc(C(=O)N5CC(O)C5)cc34)cc2)cn1
solubility kinetic (physchem): 196 µM (≈ 75.9 µg/mL)

Cn1cc(-c2ccc(Cc3n[nH]c4ccc(C(=O)N5CCOCC5)cc34)cc2)cn1
solubility kinetic (physchem): 170 µM (≈ 68.2 µg/mL)

CNC(=O)c1ccc2[nH]nc(Cc3ccc(-c4cnn(C)c4)cc3)c2c1
solubility thermodynamic [1]: 6 µg/mL (≈ 17.4 µM)
solubility kinetic (physchem): 169 µM (≈ 58.4 µg/mL)

Cn1cc(-c2ccc(Cc3n[nH]c4ccc(N5CCOCC5)cc34)cc2)cn1
solubility kinetic (physchem): 153 µM (≈ 57.1 µg/mL)

Cn1cc(-c2ccc(Cc3n[nH]c4ccc(C(=O)N5CC[C@@H](O)C5)cc34)cc2)cn1
solubility kinetic (physchem): 181 µM (≈ 72.7 µg/mL)

Cn1cc(-c2ccc(Cc3n[nH]c4ccc(-c5cc(N)ccn5)cc34)cc2)cn1
solubility kinetic (physchem): 53 µM (≈ 20.2 µg/mL)

Cn1cc(-c2ccc(Cc3n[nH]c4ccc(N5CCCC5=O)cc34)cc2)cn1
solubility kinetic (physchem): 147 µM (≈ 54.6 µg/mL)

Cn1cc(-c2ccc(Cc3n[nH]c4ccc(C(=O)NC5CC5)cc34)cc2)cn1
solubility kinetic (physchem): 76 µM (≈ 28.2 µg/mL)

CC(=O)Nc1ccc2[nH]nc(Cc3ccc(-c4cnn(C)c4)cc3)c2c1
solubility kinetic (physchem): 115 µM (≈ 39.7 µg/mL)

Cn1cc(-c2ccc(Cc3n[nH]c4ccc(C(=O)N5CCC(F)(F)C5)cc34)cc2)cn1
solubility kinetic (physchem): 104 µM (≈ 43.8 µg/mL)

Cn1cc(-c2ccc(Cc3n[nH]c4ccc(C(=O)N5CC(F)(F)C5)cc34)cc2)cn1
solubility kinetic (physchem): 89 µM (≈ 36.3 µg/mL)

CNC(=O)c1ccc2[nH]nc(CC(C)C)c2c1
solubility kinetic (physchem): > 200 µM

Cn1ncc2cc(Cc3n[nH]c4ccc(C(=O)N5CCC(F)(F)C5)cc34)ccc21
solubility kinetic (physchem): 157 µM (≈ 62.1 µg/mL)

CNC(=O)c1ccc2[nH]nc(Cc3ccc(OC)c(OC)c3)c2c1
solubility kinetic (physchem): 176 µM (≈ 57.3 µg/mL)

Cn1cc(-c2ccc(Cc3n[nH]c4ccc(-c5nccn5C)cc34)cc2)cn1
solubility kinetic (physchem): 96 µM (≈ 35.4 µg/mL)

Cn1cc(-c2ccc(Cc3n[nH]c4ccc(S(=O)(=O)NC5CC5)cc34)cc2)cn1
solubility kinetic (physchem): 107 µM (≈ 43.6 µg/mL)

COC1CN(C(=O)c2ccc3[nH]nc(Cc4ccc5c(cnn5C)c4)c3c2)C1
solubility kinetic (physchem): > 200 µM

CNC(=O)c1ccc2[nH]nc(Cc3ccc4cnn(C)c4c3)c2c1
solubility kinetic (physchem): 192 µM (≈ 61.3 µg/mL)

CC(=O)NCCNc1ccc2[nH]nc(Cc3ccc(-c4cnn(C)c4)cc3)c2c1
solubility kinetic (physchem): 183 µM (≈ 71.1 µg/mL)

Cn1cnc(-c2ccc3[nH]nc(Cc4ccc(-c5cnn(C)c5)cc4)c3c2)c1
solubility kinetic (physchem): 6 µM (≈ 2.21 µg/mL)

CNC(=O)c1ccc2[nH]nc(Cc3cccc(C)c3)c2c1
solubility kinetic (physchem): 167 µM (≈ 46.7 µg/mL)

Cn1cc(-c2ccc(Cc3n[nH]c4ccc(C(N)=O)cc34)cc2)cn1
solubility kinetic (physchem): 173 µM (≈ 57.3 µg/mL)

Cn1ncc2cc(Cc3n[nH]c4ccc(C(=O)N5CC[C@H](O)C5)cc34)ccc21
solubility kinetic (physchem): > 200 µM

CNC(=O)c1ccc2[nH]nc(Cc3ccc4c(cnn4C)c3)c2c1
Vd [2]: 0.95 L/kg
bioavailability [3]: 50%
bioavailability [4]: 88%
bioavailability [5]: 85%
bioavailability [6]: 26%
solubility [7]: 6 µg/mL (≈ 18.8 µM)
solubility [8]: 32 µg/mL (≈ 100 µM)
solubility [9]: 59 µg/mL (≈ 185 µM)
solubility thermodynamic [1]: 6 µg/mL (≈ 18.8 µM)
Vd [10]: 0.69 L/kg
Vd [11]: 0.85 L/kg
Vd [12]: 1.8 L/kg
solubility kinetic (physchem): > 200 µM
